Experimental data from patent publication US20080293771A1, “AZACYCLYLBENZAMIDE DERIVATIVES AS HISTAMINE-3 ANTAGONISTS” (Wyeth, priority 2007, published 2008).
Structures can show the parent of a compound that is named as a salt.

Molecular target: T1, Human Histamine H3 Receptor (Homo sapiens, UniProt Q9Y5N1)
T1 construct: expressed in transfected cells; host or cells: HEK293T (stably transfected; membrane preparation)
Assay: Methyl histamine binding in Human Histamine H3 Receptor Cell Line
Details: read-out: hH3 Binding Ki
Protocol: Evaluation of Methyl histamine binding in Human Histamine H3 Receptor Cell Line
The affinity of test compounds for the histamine 3 (H3) receptor is evaluated in the following manner. […] Cells are scraped from the plate, transferred to centrifuge tubes, washed one time in PBS by centrifugation in a Sorvall RT7 Plus centrifuge (2000 rpm 10 minutes, 4° C.). The resulting pellets are stored at −80° C. until ready for use. Cells are re-suspended in buffer (50 mM Tris pH=7.5) and placed in a Dounce homogenizer, douncing ten times to homogenize cells. The homogenate is spun down by centrifugation (Sorvall RT7 Plus, 1800 rpm 10 minutes, 4° C.). The supernatant is placed in a Corex tube and spun down by centrifugation (Sorvall RC 5c Plus, 17,000 rpm 20 minutes, 4° C.). The pellet is resuspended in buffer (50 mM Tris, pH 7.5). Protein concentration (ug/ul) is determined using the Micro-BCA Protein Determination. The binding assay is set up in a 96 well microtiter plate in a total volume of 250 uL. Non-specific binding is determined in the presence of 10 uM clobenpropit. The final radioligand concentration is 1 nM. The test compound is serially diluted using the Beckman Biomek2000 to a final approximate range of 100 uM to 100 pM. Membranes are suspended in buffer, homogenized in 2 bursts of ten seconds using a Vitris mechanical homogenizer set at power setting 5. Ten μg of membranes are added to each well. Following a one hour incubation at 30° C., the reaction is terminated by the addition of ice cold buffer and rapid filtration with a Packard Filtermate Harvester through a GF/B filter pre-soaked with 1% PEI for one hour. The plate is dried for one hour at 37° C. and 60 μL Microscint Scintillant is added to each well. The CPM per well is measured on a Packard Top Count NXT. Ki values are determined in nM. […] CPM values are expressed as % specific binding and plotted vs compound concentration. A curve is fitted using a four-parameter logistic fit and the IC50 value is determined. The Ki is calculated from this using the Cheng-Prusoff equation: […]=IC50/1+(L/Kd) where L=concentration of free radioligand used in the assay, and Kd is the dissociation constant of the radioligand for the receptor. L is determined for each experiment by counting an aliquot of the diluted radioligand (corresponding to that added to each well) and the Kd has previously been determined under identical conditions for this cell line/radioligand.

T1 sequence (Q9Y5N1 whole entry): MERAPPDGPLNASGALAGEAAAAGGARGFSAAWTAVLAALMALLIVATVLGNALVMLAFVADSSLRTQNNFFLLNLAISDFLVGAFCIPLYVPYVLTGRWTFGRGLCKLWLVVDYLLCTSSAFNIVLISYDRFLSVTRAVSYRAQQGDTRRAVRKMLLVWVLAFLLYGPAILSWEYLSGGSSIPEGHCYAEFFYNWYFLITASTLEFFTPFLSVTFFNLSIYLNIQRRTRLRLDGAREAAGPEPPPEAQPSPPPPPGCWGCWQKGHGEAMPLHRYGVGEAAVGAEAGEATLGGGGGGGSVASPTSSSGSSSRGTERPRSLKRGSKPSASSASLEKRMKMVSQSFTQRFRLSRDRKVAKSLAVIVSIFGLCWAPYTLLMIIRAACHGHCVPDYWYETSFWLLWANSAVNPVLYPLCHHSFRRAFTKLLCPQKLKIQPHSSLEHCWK

CN(C(=O)c1ccc(Cn2cnc3ccccc32)cc1)[C@@H]1CCNC1 [Example 36, (R)-4-((1H-benzo[d]imidazol-1-yl)methyl)-N-methyl-N-(pyrrolidin-3-yl)benzamide Hydrochloride]
Ki: > 100 nM

Cc1nc2ccccc2n1Cc1ccc(C(=O)N(C)[C@@H]2CCN(C3CCCCC3)C2)cc1 [Example 40, N-[(3R)-1-cyclohexylpyrrolidin-3-yl]-N-methyl-4-[(2-methyl-1H-benzimidazol-1-yl)methyl]benzamide]
Ki: 10.1 to 50 nM

Cc1nc2ccccc2n1Cc1ccc(C(=O)N(C)C2CCN(C(C)C)CC2)cc1 [Example 46, N-(1-isopropylpiperidin-4-yl)-N-methyl-4-[(2-methyl-1H-benzimidazol-1-yl)methyl]benzamide]
Ki: 50.1 to 100 nM

Cc1nc2ccccc2n1Cc1ccc(C(=O)N(C)C2CCN(C3CCC3)CC2)cc1 [Example 47, N-(1-cyclobutylpiperidin-4-yl)-N-methyl-4-[(2-methyl-1H-benzimidazol-1-yl)methyl]benzamide]
Ki: > 100 nM

Cc1nc2ccccc2n1Cc1ccc(C(=O)N(C)C2CCN(C3CCCC3)CC2)cc1 [Example 48, N-(1-cyclopentylpiperidin-4-yl)-N-methyl-4-[(2-methyl-1H-benzimidazol-1-yl)methyl]benzamide]
Ki: > 100 nM

CC(C)N1CCC(N(C)C(=O)c2ccc(Cn3cnc4ccccc43)cc2)CC1 [Example 49, 4-(1H-benzimidazol-1-ylmethyl)-N-(1-isopropylpiperidin-4-yl)-N-methylbenzamide]
Ki: 50.1 to 100 nM

CN(C(=O)c1ccc(Cn2cnc3ccccc32)cc1)C1CCN(C2CCC2)CC1 [Example 50, 4-(1H-benzimidazol-1-ylmethyl)-N-(1-cyclobutylpiperidin-4-yl)-N-methylbenzamide]
Ki: > 100 nM

CN(C(=O)c1ccc(Cn2cnc3ccccc32)cc1)C1CCN(C2CCCC2)CC1 [Example 51, 4-(1H-benzimidazol-1-ylmethyl)-N-(1-cyclopentylpiperidin-4-yl)-N-methylbenzamide]
Ki: > 100 nM

Cc1nc2cc(C#N)ccc2n1-c1ccc(C(=O)N(C)[C@@H]2CCN(C(C)C)C2)cc1 [Example 54, 4-(5-cyano-2-methyl-1H-benzimidazol-1-yl)-N-[(3R)-1-isopropylpyrrolidin-3-yl]-N-methylbenzamide]
Ki: ≤ 10 nM

Cc1nc2cc(C#N)ccc2n1-c1ccc(C(=O)N(C)[C@@H]2CCN(C3CCC3)C2)cc1 [Example 55, 4-(5-cyano-2-methyl-1H-benzimidazol-1-yl)-N-[(3R)-1-cyclobutylpyrrolidin-3-yl]-N-methylbenzamide]
Ki: ≤ 10 nM

Cc1nc2cc(C#N)ccc2n1-c1ccc(C(=O)N(C)[C@@H]2CCN(C3CCCC3)C2)cc1 [Example 56, 4-(5-cyano-2-methyl-1H-benzimidazol-1-yl)-N-[(3R)-1-cyclopentylpyrrolidin-3-yl]-N-methylbenzamide]
Ki: 10.1 to 50 nM

CN(C(=O)c1ccc(-n2cc3ccccc3n2)cc1)[C@@H]1CCNC1 [Example 60a, (R)-4-Indazol-2-yl-N-methyl-N-pyrrolidin-3-yl-benzamide]
Ki: > 100 nM

CN(C(=O)c1ccc(-n2ncc3ccccc32)cc1)[C@@H]1CCNC1 [Example 60b, (R)-4-Indazol-1-yl-N-methyl-N-pyrrolidin-3-yl-benzamide]
Ki: > 100 nM

CC(C)N1CC[C@@H](N(C)C(=O)c2ccc(-n3cc4ccccc4n3)cc2)C1 [Example 61, 4-(2H-indazol-2-yl)-N-[(3R)-1-isopropylpyrrolidin-3-yl]-N-methylbenzamide]
Ki: ≤ 10 nM

CN(C(=O)c1ccc(-n2cc3ccccc3n2)cc1)[C@@H]1CCN(C2CCC2)C1 [Example 62, N-[(3R)-1-cyclobutylpyrrolidin-3-yl]-4-(2H-indazol-2-yl)-N-methylbenzamide]
Ki: ≤ 10 nM

CN(C(=O)c1ccc(-n2cc3ccccc3n2)cc1)[C@@H]1CCN(C2CCCC2)C1 [Example 63, N-[(3R)-1-cyclopentylpyrrolidin-3-yl]-4-(2H-indazol-2-yl)-N-methylbenzamide]
Ki: ≤ 10 nM

CC(C)N1CC[C@@H](N(C)C(=O)c2ccc(-n3ncc4ccccc43)cc2)C1 [Example 64, 4-(1H-indazol-1-yl)-N-[(3R)-1-isopropylpyrrolidin-3-yl]-N-methylbenzamide]
Ki: ≤ 10 nM

CN(C(=O)c1ccc(-n2ncc3ccccc32)cc1)[C@@H]1CCN(C2CCC2)C1 [Example 65, N-[(3R)-1-cyclobutylpyrrolidin-3-yl]-4-(1H-indazol-1-yl)-N-methylbenzamide]
Ki: ≤ 10 nM

CN(C(=O)c1ccc(-n2ncc3ccccc32)cc1)[C@@H]1CCN(C2CCCC2)C1 [Example 66, N-[(3R)-1-cyclopentylpyrrolidin-3-yl]-4-(1H-indazol-1-yl)-N-methylbenzamide]
Ki: 10.1 to 50 nM

CN(C(=O)c1ccc(-n2ncc3ccccc32)cc1)C1CCNCC1 [Example 68]
Ki: > 100 nM

CC(C)N1CCC(N(C)C(=O)c2ccc(-n3cc4ccccc4n3)cc2)CC1 [Example 69, 4-(2H-indazol-2-yl)-N-(1-isopropylpiperidin-4-yl)-N-methylbenzamide]
Ki: 50.1 to 100 nM

CN(C(=O)c1ccc(-n2cc3ccccc3n2)cc1)C1CCN(C2CCC2)CC1 [Example 70, N-(1-cyclobutylpiperidin-4-yl)-4-(2H-indazol-2-yl)-N-methylbenzamide]
Ki: > 100 nM

CN(C(=O)c1ccc(-n2cc3ccccc3n2)cc1)C1CCN(C2CCCC2)CC1 [Example 71, N-(1-cyclopentylpiperidin-4-yl)-4-(2H-indazol-2-yl)-N-methylbenzamide]
Ki: > 100 nM

CC(C)N1CCC(N(C)C(=O)c2ccc(-n3ncc4ccccc43)cc2)CC1 [Example 72, 4-(1H-indazol-1-yl)-N-(1-isopropylpiperidin-4-yl)-N-methylbenzamide]
Ki: 50.1 to 100 nM

CN(C(=O)c1ccc(-n2ncc3ccccc32)cc1)C1CCN(C2CCC2)CC1 [Example 73, N-(1-cyclobutylpiperidin-4-yl)-4-(1H-indazol-1-yl)-N-methylbenzamide]
Ki: > 100 nM

CN(C(=O)c1ccc(-n2ncc3ccccc32)cc1)C1CCN(C2CCCC2)CC1 [Example 74, N-(1-cyclopentylpiperidin-4-yl)-4-(1H-indazol-1-yl)-N-methylbenzamide]
Ki: > 100 nM

CN(C(=O)c1ccc(Cn2ncc3ccccc32)cc1)[C@@H]1CCNC1 [Example 75, (R)-4-((1H-indazol-1-yl)methyl)-N-methyl-N-(pyrrolidin-3yl)benzamide]
Ki: > 100 nM

CC(C)N1CC[C@@H](N(C)C(=O)c2ccc(Cn3ncc4ccccc43)cc2)C1 [Example 76, 4-(1H-indazol-1-ylmethyl)-N-[(3R)-1-isopropylpyrrolidin-3-yl]-N-methylbenzamide]
Ki: 50.1 to 100 nM

CN(C(=O)c1ccc(Cn2ncc3ccccc32)cc1)[C@@H]1CCN(C2CCC2)C1 [Example 77, N-[(3R)-1-cyclobutylpyrrolidin-3-yl]-4-(1H-indazol-1-ylmethyl)-N-methylbenzamide]
Ki: 10.1 to 50 nM

CN(C(=O)c1ccc(Cn2ncc3ccccc32)cc1)[C@@H]1CCN(C2CCCC2)C1 [Example 78, N-[(3R)-1-cyclopentylpyrrolidin-3-yl]-4-(1H-indazol-1-ylmethyl)-N-methylbenzamide]
Ki: 50.1 to 100 nM

CC(C)N1CCC(N(C)C(=O)c2ccc(Cn3ncc4ccccc43)cc2)CC1 [Example 79, 4-(1H-indazol-1-ylmethyl)-N-(1-isopropylpiperidin-4-yl)-N-methylbenzamide]
Ki: 50.1 to 100 nM

CN(C(=O)c1ccc(Cn2ncc3ccccc32)cc1)C1CCN(C2CCC2)CC1 [Example 80, N-(1-cyclobutylpiperidin-4-yl)-4-(1H-indazol-1-ylmethyl)-N-methylbenzamide]
Ki: > 100 nM

CN(C(=O)c1ccc(Cn2ncc3ccccc32)cc1)C1CCN(C2CCCC2)CC1 [Example 81, N-(1-cyclopentylpiperidin-4-yl)-4-(1H-indazol-1-ylmethyl)-N-methylbenzamide]
Ki: > 100 nM

CC(C)N1CCC(N(C)C(=O)c2ccc(-n3cccn3)cc2)CC1 [Example 85, N-(1-isopropylpiperidin-4-yl)-N-methyl-4-(1H-pyrazol-1-yl)benzamide]
Ki: > 100 nM

CN(C(=O)c1ccc(-n2cccn2)cc1)C1CCN(C2CCC2)CC1 [Example 86, N-(1-cyclobutylpiperidin-4-yl)-N-methyl-4-(1H-pyrazol-1-yl)benzamide]
Ki: > 100 nM

CN(C(=O)c1ccc(-n2cccn2)cc1)C1CCN(C2CCCC2)CC1 [Example 87, N-(1-cyclopentylpiperidin-4-yl)-N-methyl-4-(1H-pyrazol-1-yl)benzamide]
Ki: > 100 nM
